Results: article PMC5063900, “A phase 1 study of the safety, tolerability, pharmacokinetics, and pharmacodynamics of TAK-063, a selective PDE10A inhibitor” (Psychopharmacology, 2016)
Marks after values point to notes of the source that are not given here.

Test: Plasma and urine pharmacokinetics after single oral dose under fasting conditions
Assay type: in vivo, human
Conditions: for CL/F (oral clearance) / Vz/F (volume of distribution) / AUC(0-inf) / T 1/2 / C max / T max / CL/F / Vz/F: plasma
Protocol: Healthy Japanese and non-Japanese subjects between 18 and 55 years of age were recruited to participate in the study. Criteria for exclusion included prior treatment with any investigational compound within 30 days of the first TAK-063 dose, a positive test for drugs of abuse or nicotine, and an increased risk for suicide. Subjects were randomized into 1 of 6 dose cohorts (3, 10, 30, 100, 300, and 1000 mg), with each cohort containing 11 TAK-063 subjects (five Japanese, six non-Japanese) and three placebo subjects (one Japanese, two non-Japanese) receiving a single dose under fasting conditions. Following a washout period of 7 days, subjects in cohort 3 (100 mg) received the same dose (100 mg) but under fed conditions. Serial plasma and urine samples were collected from all subjects prior to dosing and at specific time points or intervals up to 96 h postdose. Pharmacokinetic samples were processed immediately and frozen at −20 °C as duplicate sets. Plasma concentrations of TAK-063 and its metabolite M-I were subsequently measured by validated liquid chromatography-tandem mass spectrometry with a validated range of 0.5 to 1000 ng/mL for both analytes. The PK parameters analyzed for TAK-063 and its metabolite M-I in plasma and urine included area under the plasma concentration-time curve from time 0 to infinity (AUC (0-inf)), maximum observed plasma concentration (C max), time to reach C max (T max), terminal elimination half-life (T 1/2), oral clearance (CL/F), volume of distribution (Vz/F), and renal clearance (CLr). Metabolite-to-parent ratios were estimated from C max and AUC (0-inf) data. All statistical analyses were generated using SAS Version 9.2 (SAS, Cary, NC, USA). The PK parameters were derived using non-compartmental methods with WinNonlin Enterprise Version 6.3 (Pharsight Corp., Mountain View, CA, USA). Frequency or descriptive statistics were used for summary of data. Where indicated, percent coefficient of variation was included in the summary of continuous data. All statistical tests were 2-tailed at α = 0.05 level for significance unless otherwise stated. A power model was used to evaluate dose proportionality by race for fasted subjects; in the event of no observed race effect, dose proportionality was assessed for all subjects. To evaluate the food effect, a paired t test was performed on T max and natural log-transformed C max, and AUCs. An ANCOVA model with baseline scores and race as covariates was used to assess the effects of TAK-063 on CNSVS domain scores.

[1] = fasting, all subjects, TAK-063 100 mg (n = 11; TAK-063 n = 9), arithmetic mean (% CV)
[2] = fasting, all subjects, TAK-063 300 mg (n = 8), arithmetic mean (% CV)
[3] = fasting, all subjects, TAK-063 300 mg (n = 11; TAK-063 n = 8), arithmetic mean (% CV)
[4] = fasting, all subjects, TAK-063 1000 mg (n = 11), arithmetic mean (% CV)
[5] = non-Japanese subjects, TAK-063 3 mg (n = 6), arithmetic mean
[6] = non-Japanese subjects, TAK-063 3 mg (n = 6; M-I n = 5), arithmetic mean
[7] = non-Japanese subjects, TAK-063 10 mg (n = 6), arithmetic mean
[8] = non-Japanese subjects, TAK-063 30 mg (n = 6), arithmetic mean
[9] = non-Japanese subjects, TAK-063 100 mg (n = 5), arithmetic mean
[10] = non-Japanese subjects, TAK-063 100 mg (n = 6; TAK-063 n = 5), arithmetic mean
[11] = non-Japanese subjects, TAK-063 300 mg (n = 4), arithmetic mean
[12] = non-Japanese subjects, TAK-063 300 mg (n = 6; TAK-063 n = 4), arithmetic mean
[13] = non-Japanese subjects, TAK-063 1000 mg (n = 6), arithmetic mean

With `COc1cn(-c2ccc(-n3cccn3)cc2F)nc(-c2ccnn2-c2ccccc2)c1=O` [TAK-063] as the compound, how does the “CL/F (oral clearance)” value [1] read?
The value was 80.3 (35)^c L/h.

What about the “Vz/F (volume of distribution)” value [1] of the same compound?
The value was 2802.2 (46)^c L.

What about the “AUC(0-inf)” value [2] of the same compound?
Its value is 1900.8 (39)^d ng·h/mL.

And the “T 1/2” value [2]?
The value was 20.2 (26)^d h.

And the C max (fasting, all subjects, TAK-063 300 mg (n = 11), arithmetic mean (% CV))?
The C max was 100.3 (18) ng/mL.

And the T max (fasting, all subjects, TAK-063 300 mg (n = 11), median (minimum, maximum))?
Its T max is 4.0 (1.9, 8.0) h.

What about the “CL/F (oral clearance)” value [3] of the same compound?
The value was 185.9 (48)^d L/h.

And the “Vz/F (volume of distribution)” value [3]?
The value was 5570.7 (57)^d L.

What about the “AUC(0-inf)” value [4] of the same compound?
Its value is 5788.1 (81) ng·h/mL.

What about the C max [4] of the same compound?
The C max was 245.8 (34) ng/mL.

And the “CL/F (oral clearance)” value [4]?
The value was 232.0 (42) L/h.

What about the “T 1/2” value [4] of the same compound?
The value was 14.6 (43) h.

What about the “Vz/F (volume of distribution)” value [4] of the same compound?
The value was 5277.2 (81) L.

What about the T max (fasting, all subjects, TAK-063 1000 mg (n = 11), median (minimum, maximum)) of the same compound?
Its T max is 4.0 (2.0, 12.0) h.

What about the C max [5] of the same compound?
The C max was 8.2 ng/mL.

And the CL/F [5]?
The CL/F was 15.2 L/h.

What about the Vz/F [5] of the same compound?
The Vz/F was 521.6 L.

And the T max (non-Japanese subjects, TAK-063 3 mg (n = 6), median)?
The T max was 5.0 h.

What about the “AUC(0-inf)” value [6] of the same compound?
The value was 240.4 ng·h/mL.

What about the “T 1/2” value [6] of the same compound?
The value was 24.2 h.

And the “AUC(0-inf)” value [7]?
The value was 507.9 ng·h/mL.

What about the C max [7] of the same compound?
Its C max is 23.8 ng/mL.

And the CL/F [7]?
Its CL/F is 21.2 L/h.

What about the “T 1/2” value [7] of the same compound?
Its value is 21.3 h.

And the Vz/F [7]?
The Vz/F was 627.3 L.

What about the T max (non-Japanese subjects, TAK-063 10 mg (n = 6), median) of the same compound?
Its T max is 5.0 h.

And the “AUC(0-inf)” value [8]?
Its value is 983.9 ng·h/mL.

And the C max [8]?
Its C max is 39.5 ng/mL.

And the CL/F [8]?
The CL/F was 31.4 L/h.

And the “T 1/2” value [8]?
The value was 22.6 h.

And the Vz/F [8]?
Its Vz/F is 1009.2 L.

And the T max (non-Japanese subjects, TAK-063 30 mg (n = 6), median)?
The T max was 5.0 h.

And the “AUC(0-inf)” value [9]?
The value was 1364.9 ng·h/mL.

And the “T 1/2” value [9]?
The value was 27.8 h.

And the C max (non-Japanese subjects, TAK-063 100 mg (n = 6), arithmetic mean)?
Its C max is 72.7 ng/mL.

What about the T max (non-Japanese subjects, TAK-063 100 mg (n = 6), median) of the same compound?
Its T max is 3.5 h.

What about the CL/F [10] of the same compound?
Its CL/F is 84.0 L/h.

What about the Vz/F [10] of the same compound?
Its Vz/F is 3213.2 L.

What about the “AUC(0-inf)” value [11] of the same compound?
The value was 2165.7 ng·h/mL.

What about the “T 1/2” value [11] of the same compound?
Its value is 20.0 h.

And the C max (non-Japanese subjects, TAK-063 300 mg (n = 6), arithmetic mean)?
The C max was 102.1 ng/mL.

And the T max (non-Japanese subjects, TAK-063 300 mg (n = 6), median)?
Its T max is 3.5 h.

And the CL/F [12]?
Its CL/F is 159.0 L/h.

And the Vz/F [12]?
The Vz/F was 4731.5 L.

And the “AUC(0-inf)” value [13]?
Its value is 6502.0 ng·h/mL.

What about the C max [13] of the same compound?
Its C max is 230.7 ng/mL.

And the CL/F [13]?
The CL/F was 230.6 L/h.

What about the “T 1/2” value [13] of the same compound?
Its value is 17.0 h.

And the Vz/F [13]?
The Vz/F was 6380.3 L.

And the T max (non-Japanese subjects, TAK-063 1000 mg (n = 6), median)?
The T max was 4.0 h.

And the “CLr (renal clearance)” value (urine, Japanese subjects, TAK-063 30 mg (n = 5), arithmetic mean)?
Its value is 4.0 mL/h.

What about the “CLr (renal clearance)” value (urine, Japanese subjects, TAK-063 100 mg (n = 5), arithmetic mean) of the same compound?
Its value is 7.9 mL/h.

What about the “CLr (renal clearance)” value (urine, Japanese subjects, TAK-063 300 mg (n = 5), arithmetic mean) of the same compound?
The value was 5.9 mL/h.

What about the “CLr (renal clearance)” value (urine, Japanese subjects, TAK-063 1000 mg (n = 5), arithmetic mean) of the same compound?
The value was 6.8 mL/h.

And the Renal elimination (urine, fasting)?
The Renal elimination was “negligible”.

What about the “CLr (renal clearance)” value (urine, fasting, all subjects, TAK-063 30 mg (n = 11), arithmetic mean (% CV)) of the same compound?
Its value is 2.4 (123) mL/h.

What about the “CLr (renal clearance)” value (urine, fasting, all subjects, TAK-063 100 mg (n = 11), arithmetic mean (% CV)) of the same compound?
Its value is 5.9 (78) mL/h.

What about the “CLr (renal clearance)” value (urine, fasting, all subjects, TAK-063 300 mg (n = 11), arithmetic mean (% CV)) of the same compound?
The value was 6.1 (63) mL/h.

What about the “CLr (renal clearance)” value (urine, fasting, all subjects, TAK-063 1000 mg (n = 11), arithmetic mean (% CV)) of the same compound?
The value was 6.8 (56) mL/h.

What about the CLr (urine, non-Japanese subjects, TAK-063 30 mg (n = 6), arithmetic mean (% CV)) of the same compound?
Its CLr is 1.1 (179) mL/h.

What about the CLr (urine, non-Japanese subjects, TAK-063 100 mg (n = 6), arithmetic mean (% CV)) of the same compound?
The CLr was 4.2 (84) mL/h.

What about the CLr (urine, non-Japanese subjects, TAK-063 300 mg (n = 6), arithmetic mean (% CV)) of the same compound?
The CLr was 6.2 (63) mL/h.

What about the CLr (urine, non-Japanese subjects, TAK-063 1000 mg (n = 6), arithmetic mean (% CV)) of the same compound?
Its CLr is 6.8 (61) mL/h.
